This note sets out measurements from ChEMBL document CHEMBL3785058, “Design and synthesis of novel 3-sulfonylpyrazol-4-amino pyrimidines as potent anaplastic lymphoma kinase (ALK) inhibitors” (Bioorg Med Chem Lett, 2016).

The subject of one experiment is NCI-H2228. In words: Antiproliferative activity against human NCI-H2228 cells after 96 hrs by CellTiter-Glo assay. Type of experiment: functional, cell-based. To be noted: NCI-H2228, 96 h.
Experiment [1] has as its target ALK tyrosine kinase receptor (Homo sapiens, UniProt Q9UM73). In words: Inhibition of recombinant human wild type ALK using tyrosine kinase substrate-biotin after 30 mins by HTRF assay.
In experiment [2] the target is ALK tyrosine kinase receptor (Homo sapiens, UniProt Q9UM73, L1196M). The experiment in a line: Inhibition of recombinant human ALK L1196M mutant using tyrosine kinase substrate-biotin after 30 mins by HTRF assay.
Experiment [3] in a line: Antiproliferative activity against human KARPAS299 cells after 96 hrs by CellTiter-Glo assay. To be noted: KARPAS-299, 96 h. Type of experiment: functional, cell-based.
Experiment [4] in a line: Ratio of IC50 for human ERG to IC50 for human NCI-H2228 cells.

ALK tyrosine kinase receptor (Homo sapiens, UniProt Q9UM73, L1196M), sequence (Q9UM73 19-1620 L1196M limits assumed): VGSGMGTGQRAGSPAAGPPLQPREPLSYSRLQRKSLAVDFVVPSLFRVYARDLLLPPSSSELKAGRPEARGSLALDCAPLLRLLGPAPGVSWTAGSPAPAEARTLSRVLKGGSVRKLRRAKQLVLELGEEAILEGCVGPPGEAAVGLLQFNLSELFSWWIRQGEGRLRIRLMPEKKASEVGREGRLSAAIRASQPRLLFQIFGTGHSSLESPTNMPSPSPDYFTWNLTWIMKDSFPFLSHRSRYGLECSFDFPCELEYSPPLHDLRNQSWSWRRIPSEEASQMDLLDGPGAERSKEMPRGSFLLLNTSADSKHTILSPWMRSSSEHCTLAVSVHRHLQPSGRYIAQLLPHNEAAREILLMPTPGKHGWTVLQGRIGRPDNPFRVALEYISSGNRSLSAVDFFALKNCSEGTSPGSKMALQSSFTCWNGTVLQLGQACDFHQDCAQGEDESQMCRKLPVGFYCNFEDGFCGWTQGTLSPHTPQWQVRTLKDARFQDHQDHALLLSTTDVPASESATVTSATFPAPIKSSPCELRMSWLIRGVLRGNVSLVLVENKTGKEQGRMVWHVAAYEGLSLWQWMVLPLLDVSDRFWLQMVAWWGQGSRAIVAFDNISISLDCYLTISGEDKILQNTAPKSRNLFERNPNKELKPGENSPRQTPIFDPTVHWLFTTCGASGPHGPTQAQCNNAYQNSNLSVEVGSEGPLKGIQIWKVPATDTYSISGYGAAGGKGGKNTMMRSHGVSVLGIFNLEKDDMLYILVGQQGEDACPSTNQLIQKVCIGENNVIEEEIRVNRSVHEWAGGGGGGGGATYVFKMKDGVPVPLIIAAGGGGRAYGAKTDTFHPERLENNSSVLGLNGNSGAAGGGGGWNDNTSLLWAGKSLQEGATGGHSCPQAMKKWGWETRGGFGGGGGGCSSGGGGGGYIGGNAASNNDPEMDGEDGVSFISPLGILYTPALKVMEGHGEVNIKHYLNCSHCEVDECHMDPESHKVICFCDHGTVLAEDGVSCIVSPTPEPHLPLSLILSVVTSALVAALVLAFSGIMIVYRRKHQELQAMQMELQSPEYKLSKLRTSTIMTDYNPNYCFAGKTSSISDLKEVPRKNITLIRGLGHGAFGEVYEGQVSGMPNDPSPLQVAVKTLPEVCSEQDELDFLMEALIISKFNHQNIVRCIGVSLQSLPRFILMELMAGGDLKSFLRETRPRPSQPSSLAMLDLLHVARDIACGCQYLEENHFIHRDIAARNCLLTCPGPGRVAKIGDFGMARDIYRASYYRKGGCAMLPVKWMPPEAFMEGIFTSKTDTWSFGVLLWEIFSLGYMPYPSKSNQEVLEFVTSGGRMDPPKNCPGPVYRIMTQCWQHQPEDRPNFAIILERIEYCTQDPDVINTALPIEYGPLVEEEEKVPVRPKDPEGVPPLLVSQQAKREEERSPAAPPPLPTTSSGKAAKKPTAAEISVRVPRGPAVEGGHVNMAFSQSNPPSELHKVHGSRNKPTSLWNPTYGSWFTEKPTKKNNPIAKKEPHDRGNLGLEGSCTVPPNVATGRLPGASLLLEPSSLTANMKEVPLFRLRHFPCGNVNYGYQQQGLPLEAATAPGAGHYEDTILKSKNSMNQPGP
ALK tyrosine kinase receptor (Homo sapiens, UniProt Q9UM73), sequence (Q9UM73 whole entry): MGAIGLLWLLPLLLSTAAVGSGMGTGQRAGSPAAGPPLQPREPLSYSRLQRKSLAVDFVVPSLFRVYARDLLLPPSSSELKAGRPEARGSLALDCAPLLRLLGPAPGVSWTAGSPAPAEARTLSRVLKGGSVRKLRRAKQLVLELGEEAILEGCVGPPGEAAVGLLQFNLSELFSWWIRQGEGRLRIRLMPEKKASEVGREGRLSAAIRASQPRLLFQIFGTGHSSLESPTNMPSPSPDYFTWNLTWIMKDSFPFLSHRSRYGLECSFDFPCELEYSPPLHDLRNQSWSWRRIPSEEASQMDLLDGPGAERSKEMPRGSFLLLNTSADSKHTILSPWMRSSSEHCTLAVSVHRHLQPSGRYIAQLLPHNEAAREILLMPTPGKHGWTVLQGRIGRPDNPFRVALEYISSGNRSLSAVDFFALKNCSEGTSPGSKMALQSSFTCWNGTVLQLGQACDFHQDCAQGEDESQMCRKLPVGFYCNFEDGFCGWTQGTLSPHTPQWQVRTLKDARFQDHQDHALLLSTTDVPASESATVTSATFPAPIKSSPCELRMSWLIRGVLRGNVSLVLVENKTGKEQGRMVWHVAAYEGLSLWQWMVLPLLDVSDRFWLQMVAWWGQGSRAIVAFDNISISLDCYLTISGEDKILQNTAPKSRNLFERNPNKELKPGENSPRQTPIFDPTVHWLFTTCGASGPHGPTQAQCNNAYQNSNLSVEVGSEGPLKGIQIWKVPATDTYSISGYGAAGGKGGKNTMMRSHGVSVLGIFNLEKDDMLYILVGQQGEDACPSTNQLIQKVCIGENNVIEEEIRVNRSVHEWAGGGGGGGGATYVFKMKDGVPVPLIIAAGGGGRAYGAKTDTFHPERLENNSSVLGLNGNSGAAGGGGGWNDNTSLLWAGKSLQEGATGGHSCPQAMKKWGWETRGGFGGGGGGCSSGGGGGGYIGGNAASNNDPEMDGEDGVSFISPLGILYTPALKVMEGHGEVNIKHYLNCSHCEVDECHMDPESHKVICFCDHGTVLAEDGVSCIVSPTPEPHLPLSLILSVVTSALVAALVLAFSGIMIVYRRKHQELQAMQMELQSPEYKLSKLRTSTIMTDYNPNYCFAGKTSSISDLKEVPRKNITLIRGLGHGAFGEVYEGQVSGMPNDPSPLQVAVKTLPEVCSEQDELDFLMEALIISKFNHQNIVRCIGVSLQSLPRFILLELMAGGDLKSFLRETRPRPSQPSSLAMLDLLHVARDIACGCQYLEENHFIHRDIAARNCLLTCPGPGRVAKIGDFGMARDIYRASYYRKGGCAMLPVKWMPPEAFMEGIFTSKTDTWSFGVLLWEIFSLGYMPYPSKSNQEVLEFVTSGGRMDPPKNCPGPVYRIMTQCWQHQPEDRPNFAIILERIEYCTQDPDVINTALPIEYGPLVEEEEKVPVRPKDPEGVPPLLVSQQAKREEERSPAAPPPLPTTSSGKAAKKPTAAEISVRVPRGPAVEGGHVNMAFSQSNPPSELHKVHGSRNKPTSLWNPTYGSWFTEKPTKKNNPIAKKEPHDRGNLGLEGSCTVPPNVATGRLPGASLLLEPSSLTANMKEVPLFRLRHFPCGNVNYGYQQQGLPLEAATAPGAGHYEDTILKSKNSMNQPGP

Turning to `CCN(CC)[C@H]1CC[C@@H](c2cc(OC3CC3)c(Nc3ncc(Cl)c(Nc4cn(C)nc4S(=O)(=O)C(C)C)n3)cc2C)CC1`, half-maximal inhibition in the experiment with NCI-H2228 (IC50) was put at 60 nM.
With `Cc1cc(Nc2ncc(Cl)c(Nc3cn(C)nc3S(C)(=O)=O)n2)c(OC(C)C)cc1C1CCNCC1`, the values for the IC50 in experiment [1], in experiment [2] and in experiment [3] were 56 nM, 94 nM and 288 nM, respectively.
Consider `Cc1cc(Nc2ncc(Cl)c(Nc3cn(C)nc3C#N)n2)c(OC2CC2)cc1C1CCN(C)CC1`, for which the IC50 with NCI-H2228 was 272 nM.
As for `Cc1cc(Nc2ncc(Cl)c(Nc3cn(C)nc3S(=O)(=O)C(C)C)n2)c(OC2CC2)cc1[C@H]1CC[C@@H](NC2CC2)CC1`, the IC50 in experiment [1] stood at 8 nM; in experiment [2], 20 nM; in the experiment with NCI-H2228, 116 nM. The “Ratio IC50” value in experiment [4] was determined as 15.
In the experiment with NCI-H2228, `Cc1nc(S(=O)(=O)C(C)C)c(Nc2nc(Nc3cc(C)c(C4CCN(C)CC4)cc3OC3CC3)ncc2Cl)s1` came in with an IC50 of 150 nM.
In the case of `Cc1cc(Nc2ncc(Cl)c(Nc3cn(C)nc3S(=O)(=O)C(C)C(C)C)n2)c(OC(C)C)cc1C1CCNCC1` (stereo not drawn), the IC50 is 753 nM in experiment [1], 3900 nM in experiment [2], above 10000 nM in experiment [3] and above 10000 nM with NCI-H2228.
In the case of `Cc1cc(Nc2ncc(Cl)c(Nc3c[nH]nc3S(=O)(=O)C(C)C)n2)c(OC(C)C)cc1C1CCNCC1`, the IC50 in experiment [1] worked out at 22 nM; in experiment [2] it was 28 nM; in experiment [3], 1250 nM.
For the molecule `Cc1cc(Nc2ncc(Cl)c(Nc3cn(C)nc3S(=O)(=O)C(C)C)n2)c(OC2CC2)cc1[C@H]1CC[C@H](NC(=O)C2CC2)CC1`, the IC50 with NCI-H2228 was 154 nM.
For the molecule `Cc1cc(Nc2ncc(Cl)c(Nc3cn(C)nc3S(=O)(=O)C(C)C)n2)c(OC(C)C)cc1C1CCNCC1`, the IC50 in experiment [3] worked out at 16 nM; in the experiment with NCI-H2228, 198 nM.
The molecule `CCN(CC)[C@H]1CC[C@H](c2cc(OC3CC3)c(Nc3ncc(Cl)c(Nc4cn(C)nc4S(=O)(=O)C(C)C)n3)cc2C)CC1` returned an IC50 in the experiment with NCI-H2228 of 68 nM.
For the molecule `COc1ccc(Cn2cc(Nc3nc(Nc4cc(C)c(C5CCNCC5)cc4OC(C)C)ncc3Cl)c(S(=O)(=O)C(C)C)n2)cc1`, the IC50 in experiment [1] was 129 nM; in experiment [2], 157 nM; in experiment [3] it was above 624 nM.
For the molecule `Cc1nc(Nc2nc(Nc3cc(C)c(C4CCN(C)CC4)cc3OC3CC3)ncc2Cl)c(S(=O)(=O)C(C)C)s1`, the figures for the IC50 (in experiment [1]; in experiment [2]; in the experiment on NCI-H2228) were 3 nM, 19 nM and 490 nM, respectively.
In the experiment with NCI-H2228, `Cc1cc(Nc2ncc(C#N)c(Nc3cn(C)nc3S(=O)(=O)C(C)C)n2)c(OC2CC2)cc1C1CCN(C)CC1` returned an IC50 of 87 nM.
On to `Cc1cc(Nc2ncnc(Nc3cn(C)nc3S(=O)(=O)C(C)C)n2)c(OC2CC2)cc1C1CCN(C)CC1`, for which the IC50 in experiment [1] was 36 nM; in experiment [2], 111 nM.
`Cc1cc(Nc2ncc(Cl)c(Nc3cn(C)nc3S(=O)(=O)C(C)C)n2)c(OC2CC2)cc1C1CCS(=O)(=O)CC1`: the results for the IC50 (in experiment [1]; in experiment [2]; in the experiment with NCI-H2228) were 3 nM, 9 nM and 97 nM, respectively. Also, the “Ratio IC50” value in experiment [4] is listed as 206.
In the experiment on NCI-H2228, `Cc1cc(Nc2ncc(Cl)c(Nc3cn(C)nc3S(=O)(=O)C(C)C)n2)c(OC2CC2)cc1C1CCC(N2CCN(C)CC2)CC1` (mixture of isomers) returned a concentration for half-maximal inhibition (IC50) of 141 nM. Further, in experiment [4], the “Ratio IC50” value was found to be 6.
Take `Cc1cc(Nc2ncc(Cl)c(Nc3cn(C)nc3S(=O)(=O)N(C)C)n2)c(OC(C)C)cc1C1CCNCC1`: the IC50 in experiment [1] was 6680 nM; in experiment [2] it was above 10000 nM.
